In ChEMBL document CHEMBL5728698, “Pyrrolo[1,2-b]pyridazine derivatives” (2021):

Molecular target: T1, Interleukin-1 receptor-associated kinase 4 (Homo sapiens, UniProt Q9NWZ3)
T1 sequence (Q9NWZ3 whole entry): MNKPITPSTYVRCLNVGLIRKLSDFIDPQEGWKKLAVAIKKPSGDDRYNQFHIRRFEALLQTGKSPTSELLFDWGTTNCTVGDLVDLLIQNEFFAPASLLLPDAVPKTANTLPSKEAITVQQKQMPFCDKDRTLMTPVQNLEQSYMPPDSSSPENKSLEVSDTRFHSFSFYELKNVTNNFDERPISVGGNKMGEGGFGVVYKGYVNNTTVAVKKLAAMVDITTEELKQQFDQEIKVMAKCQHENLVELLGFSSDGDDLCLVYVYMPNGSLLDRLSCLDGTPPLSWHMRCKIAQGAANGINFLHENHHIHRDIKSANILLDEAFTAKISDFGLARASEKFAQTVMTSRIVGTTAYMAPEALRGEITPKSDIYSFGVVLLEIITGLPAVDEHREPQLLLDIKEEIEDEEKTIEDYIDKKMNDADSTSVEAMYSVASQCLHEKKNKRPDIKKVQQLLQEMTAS
Assay: IRAK4 Biochemical Assay: IRAK4 enzyme (Carna Biosciences, Chuo-ku, Kobe, Japan) activity was measured by detecting phosphorylated peptide substrate formation using an antibody against the phosphorylated peptide substrate. This is a time-resolved fluorescence resonance energy transfer (TR-FRET) immunoassay, based on the STK1 KinEASE Assay (Cisbio, Bedford, Mass.). The assay was designed as a simple two-step, endpoint assay (a 5 μl enzyme reaction followed by 5 μl stop and detect Solution) performed in ProxiPlate-384 Plus plates (Perkin Elmer, Waltham, Mass.). Staurosporine, a non-selective kinase inhibitor was used as a positive control. Compounds diluted in DMSO were spotted into 384 well plates using a Labcyte® Echo 550 Liquid Handling System prior to addition of IRAK4 enzyme and peptide substrate. Reaction solutions were delivered using a Multi-Flo (Bio-Tek Instruments). The enzyme and peptide solution was incubated with compound for 15 minutes at room temp before the reaction was initiated by the addition of ATP. The standard 5 μl reaction mixture contained 500 μM ATP, 2 μM peptide (STK1 Peptide), 0.75 nM of IRAK4 in reaction buffer (50 mM HEPES, pH 7.0, 0.02% NaN3, 0.01% BSA, 0.1 mM Orthovanadate, 5 mM MgCl2, 0.025% NP-40, 1 mM DTT). […]

- IC50: < 1 nM
Compound: COC(=O)NC[C@H]1C[C@H](Nc2cc(-c3ccc4cc(C#N)cnn34)ncc2-c2cn([C@H]3CC[C@H](NC(=O)N4CCOCC4)CC3)nn2)C1
